Experiments:
Type in all cases: cell-based
E. faecalis = experiment: Bactericidal activity
S. epidermidis = experiment: Bactericidal activity
S. aureus = experiment: Bactericidal activity
S. pyogenes = experiment: Bactericidal activity
E. faecium = experiment: Bactericidal activity
[1] = tested on: macrolide-, penicillin-, and levofloxacin-resistant S. pneumoniae; experiment: Antibacterial activity against drug-resistant strains
Procedure: (§1) Compounds of the present invention were tested for antibacterial activity against a variety of pathogenic organisms including S. aureus, S. pneumoniae, S. pyogenes, E. faecalis, H. influenza and M. catarrhalis using a standard broth microdilution method to determine their minimum inhibitory concentrations (MICs). All compounds were tested using standard methods in accordance with CLSI guidelines (Clinical and Laboratory Standards Institute). Compounds described in Examples 1-5, 7-12, 14, 16-17, 19-30, 32-35, 37-42, 44-66, 69, 71-76, 79-84, and 87 had MIC's of 0.25-4.0 μg/mL against some strains of the major Gram-positive organisms S. aureus, S. pneumoniae, S. pyogenes, and E. faecalis.
(§2) Compounds of the present invention were not compromised by existing resistance to all drug classes tested, including β-lactams, glycopeptides, oxazolidinones, macrolides, and fluoroquinolones. In particular, the compound described in Example 9 was active against methicillin- (oxacillin-) resistant S. aureus (MRSA), vancomycin-intermediate S. aureus (VISA), linezolid-resistant S. aureus, methicillin- (oxacillin-) resistant and mupirocin resistant S. epidermidis, macrolide-resistant S. pyogenes, macrolide-, penicillin-, and levofloxacin-resistant S. pneumoniae, vancomycin-, macrolide-, and ciprofloxacin-resistant E. faecalis (VRE) and vancomycin-, macrolide-, and ciprofloxacin-resistant E. faecium.

[2] = tested on: methicillin- (oxacillin-) resistant and mupirocin resistant S. epidermidis; experiment: as above
Procedure: as §1, §2

[3] = tested on: resistant S. aureus (MRSA, VISA, linezolid-resistant); experiment: as above
Procedure: as §1, §2

[4] = tested on: macrolide-resistant S. pyogenes; experiment: as above
Procedure: as §1, §2

[5] = tested on: vancomycin-, macrolide-, and ciprofloxacin-resistant E. faecium; experiment: as above
Procedure: as §1, §2

[6] = tested on: vancomycin-, macrolide-, and ciprofloxacin-resistant E. faecalis (VRE); experiment: as above
Procedure: as §1, §2

[7] = tested on: clinically relevant resistant strains; experiment: MIC in clinically relevant drug-resistant strains (all species together)
Procedure: as §1, §2

S. pneumoniae = experiment: Bactericidal activity

CCCS(=O)(=O)Cc1csc(NC(=O)NCc2ccc(Cl)c(Cl)c2)n1 [Example 9, 1-(3,4-dichlorobenzyl)-3-(4-(propylsulfonylmethyl)thiazol-2-yl)urea]
0.5 to 4 µg/mL: MIC ([7]; clinically relevant resistant strains)
bactericidal: bactericidal effect (E. faecalis) | bactericidal effect (S. epidermidis) | bactericidal effect (S. aureus) | bactericidal effect (S. pyogenes) | bactericidal effect (E. faecium) | bactericidal effect (S. pneumoniae)
active: activity against resistant strain [1] | activity against resistant strain [2] | activity against resistant strain ([3]; linezolid-resistant S. aureus) | activity against resistant strain ([3]; methicillin- (oxacillin-) resistant S. aureus (MRSA)) | activity against resistant strain ([3]; vancomycin-intermediate S. aureus (VISA)) | activity against resistant strain [4] | activity against resistant strain [5] | activity against resistant strain [6]
comparable: MICs in sensitive versus drug resistant strains ([7]; sensitive versus drug resistant strains)

Reference: patent publication US8293919B2, “Antibacterial sulfone and sulfoxide substituted heterocyclic urea compounds” (Crestone, Inc., priority 2007, dated 2012)
